The results in this text go back to patent US9615577B2, “Herbicidally active cyclic dione compounds, or derivatives therefor, substituted by a phenyl which has an alkynyl-containing substituent” (Syngenta Limited, priority 2012, dated 2017).

Common to all, as to type: in vivo
Experiment [1] relates to Beta vulgaris (BEAVA, sugar beet). Kind of experiment: Test 1B glasshouse assay for herbicidal activity, pre-emergence. To be noted: 480 h, 20 DAA, read-out: percentage phytotoxicity BEAVA. The method in brief: (§1)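 Plants grown in soil at 20/16° C day/night, 16 h light, 65% humidity; sprayed after 1 day (pre-emergence) or ~12 days (post-emergence) with formulated compound in 0.2% v/v X-77 adjuvant. Visual % phytotoxicity scored 20 DAA (pre) or 15 DAA (post).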

Experiment [2] deals with Triticum aestivum (TRZAW, winter wheat). The description is as above. To be noted: 480 h, 20 DAA, read-out: percentage phytotoxicity TRZAW. In outline:
as §1

In experiment [3] the test system is Brassica napus (BRSNN, rape). Described as above. To be noted: 480 h, 20 DAA, read-out: percentage phytotoxicity BRSNN. The method in brief: as §1
Experiment [4] concerns Setaria faberi (SETFA). The experiment is described as follows: Test 1B glasshouse assay for herbicidal activity, post-emergence. Conditions: 360 h. The method in brief:
(§2)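 Pots of soil were sown and held one day for pre-emergence or about 12 days for post-emergence treatment, then sprayed with an aqueous solution containing 0.2% v/v X-77 adjuvant, prepared from a 50 g/liter IF50 formulation, at rate-dependent concentration. Visual damage scoring followed at 20 or 15 DAA respectively.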

For experiment [5], the system named is Digitaria sanguinalis (DIGSA). The experiment is described as above. To be noted: 360 h. In outline:
as §2

Experiment [6] has as its system SORVU (Sorghum bicolor (L.) Moench ssp. Bicolor, or Sorghum vulgare Pers.). The description is as above. Conditions: 360 h. In outline: as §2
Experiment [7] relates to Echinochloa crus-galli (ECHCG). The description is as above. Conditions: Echinochloa crus-galli. In outline: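 Plants grown about 12 days (10–13) in glasshouse (24/18 °C day/night, 16 h light, 65% humidity) then sprayed with IF50 formulation diluted in 0.2% v/v X-77 adjuvant at set application rates. Percent phytotoxicity scored visually 15 days after application (0 = no damage, 100 = total damage).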

Experiment [8] deals with Setaria faberi (SETFA). The experiment is described as follows: Test 1A glasshouse assay for herbicidal activity, post-emergence. To be noted: 312 h, evaluated after 13 days, read-out: percentage phytotoxicity SETFA. The method in brief: (§3)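 Phytotoxicity was rated visually 13 days post-spray, 0 meaning no damage and 100 total damage. Spray solution: acetone/water 50:50 with 0.5% Tween 20, applied one day post-sowing for pre-emergence or after 8 days for post-emergence; plants kept at 24/16 °C, 14 h light, 65% humidity.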

For experiment [9], the system named is Alopecurus myosuroides (ALOMY). The experiment is described as above. Conditions: 312 h, evaluated after 13 days, read-out: percentage phytotoxicity ALOMY. The method in brief:
as §3

Experiment [10] has as its system Echinochloa crus-galli (ECHCG). Described as above. To be noted: 312 h, evaluated after 13 days, read-out: percentage phytotoxicity ECHCG. The method in brief:
as §3

The subject of experiment [11] is Amaranthus retroflexus (AMARE). The description is as above. To be noted: 312 h, evaluated after 13 days, read-out: percentage phytotoxicity AMARE. In outline:
as §3

A further experiment deals with Lolium perenne (LOLPE). The experiment is described as follows: Test 1B glasshouse assay for herbicidal activity, pre-emergence. To be noted: 480 h, 20 DAA, read-out: percentage phytotoxicity LOLPE. In outline:
(§4)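 Potted plants sprayed with active ingredient in an emulsifiable formulation diluted in 0.2% v/v X-77, 1 day after sowing (pre-emergence) or about 12 days after (post-emergence). Glasshouse at 20/16° C day/night, 16 h light, 65% humidity. Visual percent phytotoxicity scored at 20 DAA (pre) or 15 DAA (post).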

A further experiment concerns Avena fatua (AVEFA). The description is as above. Conditions: 480 h, 20 DAA, read-out: percentage phytotoxicity AVEFA. In outline: as §4
Experiment [12] deals with Alopecurus myosuroides (ALOMY). The description is as above. Conditions: 480 h, 20 DAA, read-out: percentage phytotoxicity ALOMY. In outline: as §4
The test system of experiment [13] is Echinochloa crus-galli (ECHCG). The experiment is described as above. To be noted: 480 h, 20 DAA, read-out: percentage phytotoxicity ECHCG. In outline: as §2

For the compound `CC#Cc1ccc(C2C(=O)C3CCC(C3)C2=O)c(C)c1` (single isomer, unassigned) [Compound A-2], the plant injury at 500 g/ha turned out to be 0% in [1] (500 g/ha), 60% in [2] (500 g/ha) and 40% in experiment [3] (500 g/ha). Besides, the pest or weed control at 60 g/ha in the experiment on Setaria faberi (SETFA) [4] (60 g/ha application rate) came to 100%; in experiment [5] (60 g/ha application rate), 100%; in [6] (60 g/ha application rate), 80%; in experiment [7] (60 g/ha application rate) it was 100%. Further, the pest or weed control at 250 g/ha came out at 100% in the experiment on Setaria faberi (SETFA) [8], 90% in experiment [9], 100% in [10] and 0% in experiment [11]. The pest or weed control at 500 g/ha in the experiment on Lolium perenne (LOLPE) (500 g/ha) was 100%; with Avena fatua (AVEFA) (500 g/ha), 80%; in experiment [12] (500 g/ha) it was 100%; in [13] (500 g/ha), 100%.
Turning to `CC#Cc1cc(C)c(C2=C(OC(C)=O)CC(c3ccccn3)CC2=O)c(C)c1` (centres unmarked) [Compound A-15], the plant injury at 125 g/ha in experiment [1] (125 g/ha) was 0%; in experiment [2] (125 g/ha) it was 0%; in [3] (125 g/ha), 80%. In addition, the pest or weed control at 30 g/ha in the experiment on Setaria faberi (SETFA) [4] (30 g/ha application rate) came to 80%; in [5] (30 g/ha application rate), 90%; in [6] (30 g/ha application rate), 80%; in experiment [7] (30 g/ha application rate), 80%; with Setaria faberi (SETFA) [8] (30 g/ha) it was 100%; in experiment [9] (30 g/ha) it was 90%. Moreover, the pest or weed control at 30 g/ha amounted to 100% in experiment [10] (30 g/ha) and 0% in experiment [11] (30 g/ha). In addition, the pest or weed control at 125 g/ha with Setaria faberi (SETFA) [4] (125 g/ha application rate) was determined as 100%; in experiment [5] (125 g/ha application rate), 100%; in [6] (125 g/ha application rate), 100%; in experiment [7] (125 g/ha application rate), 100%; in the experiment on Lolium perenne (LOLPE) (125 g/ha) it was 90%; with Avena fatua (AVEFA) (125 g/ha), 50%. In addition, the pest or weed control at 125 g/ha in experiment [12] (125 g/ha) and in [13] (125 g/ha) was 80% in each case. Besides, the pest or weed control at 250 g/ha was 100% in the experiment with Setaria faberi (SETFA) [8], 100% in experiment [9], 100% in experiment [10] and 60% in [11].
